Patent US20110105554A1, “MEANS FOR TREATING MYOSIN-RELATED DISEASES” (KINARIS BIOMEDICALS GMBH, priority 2007, published 2011)

Key:
[1] = target: T1, M761 (myosin-2 motor domain from D. discoideum) (Dictyostelium discoideum, UniProt P08799, C312Y/S249N); test: Quench-flow ATP hydrolysis (Pi-burst) with M761; assay type: biochemical; conditions: 50 μM PBP
T1 construct: amino acids 3 to 761 of myosin-2 from D. discoideum; His-tag (N); made in house; host or cells: D. discoideum AX3-ORF+ cells
Procedure: Effect of Pentabromopseudilin on ATP binding kinetics to DdMyosin-5b and acto-DdMyosin-5b. (FIG. 10a) Fluorescence transients obtained upon mixing 1 μM DdMyosin-5b with 10 μM mantATP in the absence and presence of 5 μM, 25 μM, 50 μM and 100 μM PBP. Mant-fluorescence was excited at 365 nm and detected after passing through a KV 389 nm cut-off filter. The fluorescent signal of mantATP binding to DdMyosin-5b in the absence of PBP follows a single exponential function (upper curve). The presence of increasing concentrations of PBP lead to reduced amplitudes of the fluorescent signals that are best fit by double exponentials. (FIG. 10b) Plot of the relative amplitudes of mantATP binding to Dd Myosin-5b at different PBP concentrations. […] (FIG. 10c) Fluorescence transients of the ATP induced dissociation of pyrene-acto-DdMyosin-5b in the absence (black curve) and presence (grey curve) of 50 μM PBP. (FIG. 10d) Quench-flow experiments of the ATP hydrolysis reaction upon mixing 5 μM M761 with 25 μM ATP in the absence (solid squares) and presence (open circles) of 50 μM PBP. The Pi-burst (kburst=7.8±0.2 sin the absence and 2.5±0.1 s^−1 in the presence of PBP) was followed by a linear steady-state phase. […]
Quench-flow Experiments. […] The relative amounts of […] and ATP were quantified using a phosphorimager (Fujix BAS1000, Fuji), the software MacBAS V 2.4, TINA V 2.09f, and Origin 7.0.

[2] = test system: Saccharomyces cerevisiae cells; test: Myo2p-dependent changes in mitochondrial morphology in yeast; assay type: cell-based
Procedure: FIG. 13: Myo2p-dependent changes in mitochondrial morphology. In yeast cells, the class-5 myosins Myo2p is responsible for the distribution of mitochondria between mother and daughter cells during cytokinesis and has be shown to affect mitochondrial morphology during […]. […] Insets show the same cells viewed under transmitted light. Bar: 5 μm
To test the specific inhibition of myosin-5 function in a cellular context, we exposed Saccharomyces cerevisiae cells to 100 to 500 nM PBP. S. cerevisiae has five myosin heavy chain genes: a myosin-2, two class-1 myosins, and the class-5 myosins Myo2p and Myo4p. Myo2p plays a crucial role in polarized distribution of mitochondria and is required for retention of newly inherited mitochondria in yeast cells during cell division^4-6. Myo4p is required for mRNA transport and facilitates movement of ER tubules into the growing bud. Myo4p null mutants are viable and display no detectable phenotype. Deletion of the myo3 and myo5 genes, encoding class-1 myosins, leads to severe defects in growth and actin cytoskeletal organization. Severe growth defects are also observed upon depletion of the class-2 myosin Myo1p. Therefore, we expected that selective inhibition of class-5 myosins will produce readily detectable changes in the morphology of mitochondria without affecting cell growth and cytokinesis. To facilitate the visual inspection of mitochondrial morphology, we transfected the cells used for these experiments with an expression vector for the production of mitochondria-targeted GFP^7. A yeast mutant strain with myo2 expression under the control of the TetO7 promoter was used as control^8. Repression of the TetO7 promoter by the addition of 10 μg/ml deoxycycline to the culture medium of this strain led to an apparent fragmentation of mitochondria.
Myo2p-dependent changes in mitochondrial morphology. […] Yeast strains producing mitochondria-targeted GFP were supplied by Dr. B. Westermann^7, allowing us to study the morphology of yeast mitochondria in a fluorescence microscope. […] Cells were analyzed at the end of the logarithmic growth phase. […]

T1 sequence (P08799 3-761 S249N/C312Y): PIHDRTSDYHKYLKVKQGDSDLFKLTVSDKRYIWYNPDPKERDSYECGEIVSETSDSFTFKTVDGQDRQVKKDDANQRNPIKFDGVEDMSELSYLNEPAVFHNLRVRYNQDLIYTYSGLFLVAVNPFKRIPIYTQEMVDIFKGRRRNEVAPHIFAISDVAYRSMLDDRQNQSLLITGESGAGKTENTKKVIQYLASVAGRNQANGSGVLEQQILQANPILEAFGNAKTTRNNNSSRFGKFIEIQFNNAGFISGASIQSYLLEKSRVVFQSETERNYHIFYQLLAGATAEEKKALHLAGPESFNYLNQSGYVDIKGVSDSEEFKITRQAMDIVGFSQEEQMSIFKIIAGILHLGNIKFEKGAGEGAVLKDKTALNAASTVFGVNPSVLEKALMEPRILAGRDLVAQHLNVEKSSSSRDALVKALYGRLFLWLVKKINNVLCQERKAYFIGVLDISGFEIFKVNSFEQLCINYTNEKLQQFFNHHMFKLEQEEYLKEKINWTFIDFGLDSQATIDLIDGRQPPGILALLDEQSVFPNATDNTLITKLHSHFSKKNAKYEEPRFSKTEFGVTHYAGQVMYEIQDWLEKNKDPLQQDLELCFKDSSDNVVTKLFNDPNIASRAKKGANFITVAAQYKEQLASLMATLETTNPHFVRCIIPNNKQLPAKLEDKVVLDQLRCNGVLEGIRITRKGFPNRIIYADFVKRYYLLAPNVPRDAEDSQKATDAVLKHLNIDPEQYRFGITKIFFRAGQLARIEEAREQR

Oc1c(Br)cc(Br)cc1-c1[nH]c(Br)c(Br)c1Br [KIN-43]
Pi-burst rate kburst ([1]; 5 μM M761, 25 μM ATP): 2.5 ± 0.1 s⁻¹ | amplitude of the burst ([1]; 0.95 in the absence): 0.5 | mitochondrial morphology ([2]; 100 nM PBP): closely resembled that of untreated wild-type cells | mitochondrial morphology ([2]; 500 nM PBP, 12 hours, wild-type cells, listed as PBP): phenotype of Myo2p-depleted cells can be phenocopied | growth kinetics of yeast cells ([2]; 500 nM, listed as PDP): almost the same growth kinetics as wild type control cultures
